Our source for the IC50 values is ChEMBL document CHEMBL4004790, “ent-Strobane and ent-Pimarane Diterpenoids from Siegesbeckia pubescens” (J Nat Prod, 2017).

One assay has as its system MDA-MB-231. The assay is described as follows: Antiinvasive activity in human MDA-MB-231 cells assessed as inhibition of EGF-induced cell invasion after 3.5 hrs. It counts as functional, cell-based. The following applies: MDA-MB-231, 3.5 h.
For the next assay, the system named is RAW264.7. The assay is described as follows: Antiinflammatory activity in mouse RAW264.7 cells assessed as inhibition of LPS-induced nitric oxide production after 24 hrs by Griess assay. The settings on record: RAW264.7, 24 h. The assay is classed as functional, cell-based. On the technique in general: Nitrite, measured by Griess reagent, commonly stands in for NO production.

Regarding `CC1(C)[C@H](O)CC[C@@]2(C)[C@@H]3CC[C@](C)([C@@H](O)CO)C=C3C=C[C@H]12`, the figures for the concentration for half-maximal inhibition (IC50) with MDA-MB-231 and in the assay on RAW264.7 were greater than 10 µM and greater than 100 µM, respectively.

Turning to `C[C@@]1(CO)C[C@H](O)C[C@@]2(C)[C@@H]3CC[C@](C)([C@@H](O)CO)C=C3CC[C@H]12`, the figures for the IC50 in the assay with MDA-MB-231 and in the assay with RAW264.7 were greater than 10 µM and greater than 100 µM, respectively.

For `C[C@]1(CO)C[C@@H](O)C[C@@]2(C)[C@@H]3CC[C@](C)([C@@H](O)CO)C=C3CC[C@H]12`, the values for the 50% inhibitory concentration (IC50) in the assay on MDA-MB-231 and in the assay on RAW264.7 were greater than 10 µM and greater than 100 µM, respectively.

Turning to `CC1(C)[C@H]2CC=C3[C@@H](CC[C@@]4(C)[C@@H]3OC[C@@H]4O)[C@]2(C)CC[C@@H]1O`, the IC50 is greater than 10 µM with MDA-MB-231 and greater than 100 µM in the assay on RAW264.7.

With `C[C@@]1(CO)C[C@@H](O)C[C@@]2(C)[C@@H]3CC[C@](C)(O)[C@@H](CO)C=C3CC[C@H]12`, the values for the IC50 in the assay with MDA-MB-231 and with RAW264.7 were greater than 10 µM and greater than 100 µM, respectively.

As for `C[C@@]1(CO)C[C@@H](O)C[C@@]2(C)[C@@H]3CC[C@](C)([C@@H](O)CO)C=C3[C@@H](O)C[C@H]12`, the half-maximal inhibitory concentration (IC50) in the assay with MDA-MB-231 is greater than 10 µM; with RAW264.7 it was greater than 100 µM.

In the case of `Cc1ccc2c(c1)C(=O)C[C@@H]1[C@](C)(CO)CC(=O)C[C@@]21C`, the IC50 is 4.26 to 4.29 µM in the assay with MDA-MB-231 and greater than 100 µM in the assay on RAW264.7.

With `Cc1ccc2c(c1)CC[C@@H]1[C@](C)(CO)C[C@@H](O)C[C@@]21C`, the concentration for half-maximal inhibition (IC50) is greater than 10 µM in the assay on MDA-MB-231 and greater than 100 µM with RAW264.7.

For the compound `CC1(C)[C@H](O)C[C@H](O)[C@@]2(C)[C@@H]3CC[C@](C)([C@@H](O)CO)C=C3CC[C@H]12`, the IC50 in the assay on MDA-MB-231 was greater than 10 µM; in the assay on RAW264.7, greater than 100 µM.

Consider `CC1(C)[C@H](O)CC[C@@]2(C)[C@@H]3CC[C@@]4(C)[C@H](OC[C@@H]4O)C3=CC[C@H]12`, for which the IC50 was greater than 10 µM in the assay with MDA-MB-231 and greater than 100 µM in the assay on RAW264.7.

Turning to `C[C@]1(CO)[C@H]2CCC3=C[C@@](C)([C@@H](O)CO)CC[C@H]3[C@]2(C)C[C@H](O)[C@H]1O`, the concentration for half-maximal inhibition (IC50) is greater than 10 µM in the assay on MDA-MB-231 and greater than 100 µM in the assay with RAW264.7.

`C[C@@]1(CO)C[C@@H](O)C[C@@]2(C)[C@@H]3CC[C@](C)([C@H](O)CO)C=C3CC[C@H]12`: the concentration for half-maximal inhibition (IC50) is greater than 10 µM in the assay on MDA-MB-231 and greater than 100 µM in the assay on RAW264.7.

Regarding `CC1(C)[C@H](O)CC[C@@]2(C)[C@@H]3CC[C@](C)([C@H](O)CO)C=C3CC[C@H]12`, the concentration for half-maximal inhibition (IC50) in the assay with MDA-MB-231 is 3.45 µM; with RAW264.7, greater than 100 µM.

`C[C@@]1(CO)C[C@@H](O)C[C@@]2(C)[C@@H]3CC[C@](C)([C@@H](O)CO)C=C3[C@H](O)C[C@H]12`: the 50% inhibitory concentration (IC50) in the assay with MDA-MB-231 was 9.7 µM; in the assay with RAW264.7, greater than 100 µM.

Turning to `C[C@@]1(CO)C[C@@H](O)C[C@@]2(C)[C@@H]3CC[C@](C)([C@@H](O)CO)C=C3C=C[C@H]12`, the concentration for half-maximal inhibition (IC50) in the assay with MDA-MB-231 is greater than 10 µM; in the assay on RAW264.7 it was greater than 100 µM.

As for `CC1(C)[C@H](O)CC[C@@]2(C)[C@@H]3CC[C@](C)(O)[C@@H](CO)C=C3CC[C@H]12`, the IC50 in the assay with MDA-MB-231 was greater than 10 µM; with RAW264.7 it was greater than 100 µM.

On to `CC1(C)[C@H](O)CC[C@@]2(C)[C@@H]3CC[C@](C)([C@@H](O)CO)C=C3CC[C@H]12` [DARUTIGENOL], for which the values for the IC50 in the assay on MDA-MB-231 and in the assay with RAW264.7 were greater than 10 µM and greater than 100 µM, respectively.

Take `C[C@@]1(CO)C[C@@H](O)C[C@@]2(C)[C@@H]3CC[C@](C)([C@@H](O)CO)C=C3CC[C@H]12` [KIRENOL]: the values for the IC50 in the assay on MDA-MB-231 and in the assay with RAW264.7 were greater than 10 µM and greater than 100 µM, respectively.

In general, IC50 refers to the midpoint of a concentration-inhibition curve.
